Patent US8865734B2 (priority 2010, dated 2014)
In brackets after ≈: the same amount, converted by molar mass. Where two headings read alike, the source gives them in different places.

Key:
[1] = system: M. tuberculosis inside the host macrophage; assay: QIM: Quantification of Intracellular Mycobacteria (intracellular growth assay, phenotypic cell-based); details: Mycobacterium tuberculosis
In short: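 Phenotypic high-content assay measuring M. tuberculosis multiplication inside host macrophages, run as dose response. MIC is the minimum compound concentration giving 80% bacterial growth inhibition.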

[2] = system: in vitro grown Mycobacteria (M. tuberculosis); assay: QUM: Quantification of in vitro grown Mycobacteria (in vitro growth fluorescence assay); format: cell-based; details: Mycobacterium tuberculosis
In short: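 Mycobacterium tuberculosis grown in vitro was quantified by fluorescence across compound dose responses. MIC is defined as the minimum concentration producing 80% growth inhibition.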

[3] = MIC, 80% bacterial growth inhibition, intracellular growth, read-out: QIM
[4] = MIC, 80% bacterial growth inhibition, in vitro growth, read-out: QUM

CC(C)c1nc2ccccn2c1C(=O)NCc1ccccc1 [Compound 51, N-Benzyl-2-isopropylimidazo[1,2-a]pyridine-3-carboxamide]
MIC [1, 3]: > 20 µM
MIC [2, 4]: > 20 µM

CCc1nc2cc(Cl)ccn2c1C(=O)NCc1ccc(-c2ccc(C(F)(F)F)cc2)cc1 [Compound 120, 7-Chloro-2-ethyl-N-((4′-(trifluoromethyl)biphenyl-4-yl)methyl)imidazo[1,2-a]pyridine-3-carboxamide]
MIC [1, 3]: < 1 µM
MIC [2, 4]: < 1 µM

CCc1nc2ccc(Cl)cn2c1C(=O)NCc1ccc(OC(F)(F)F)cc1 [Compound 72]
MIC [1, 3]: < 1 µM
MIC [2, 4]: < 1 µM

Cc1nc2ccc(F)cn2c1C(=O)NCc1ccccc1 [Compound 34, N-Benzyl-6-fluoro-2-methylimidazo[1,2-a]pyridine-3-carboxamide]
MIC [1, 3]: 1 to 20 µM (≈ 0.283 to 5.67 µg/mL)
MIC [2, 4]: 1 to 20 µM (≈ 0.283 to 5.67 µg/mL)

CCc1nc2ccc(Cl)cn2c1C(=O)NCc1ccc(-c2ccc(Cl)cc2)cc1 [Compound 83, 6-Chloro-N-((4′-chlorobiphenyl-4-yl)methyl)-2-ethylimidazo[1,2-a]pyridine-3-carboxamide]
MIC [1, 3]: < 1 µM
MIC [2, 4]: < 1 µM

CCCNc1ccc(CNC(=O)c2c(CC)nc3cc(Cl)ccn23)cc1 [Compound 106, 7-Chloro-2-ethyl-N-(4-(propylamino)benzyl)imidazo[1,2-a]pyridine-3-carboxamide]
MIC [1, 3]: 1 to 20 µM (≈ 0.371 to 7.42 µg/mL)
MIC [2, 4]: < 1 µM

CCc1nc2cc(Cl)ccn2c1NC(=O)c1ccc(-c2ccccc2)cc1 [Compound 142, N-(7-Chloro-2-ethylimidazo[1,2-a]pyridin-3-yl)biphenyl-4-carboxamide]
MIC [1, 3]: > 20 µM
MIC [2, 4]: > 20 µM

Cc1nc2cc(-c3ccccc3)ccn2c1C(=O)O [Compound 3, 2-Methyl-7-phenylimidazo[1,2-a]pyridine-3-carboxylic acid]
MIC [1, 3]: > 20 µM
MIC [2, 4]: > 20 µM

CCc1nc2ccccn2c1C(=O)NCc1ccccc1 [Compound 46, N-Benzyl-2-ethylimidazo[1,2-a]pyridine-3-carboxamide]
MIC [1, 3]: 1 to 20 µM (≈ 0.279 to 5.59 µg/mL)
MIC [2, 4]: 1 to 20 µM (≈ 0.279 to 5.59 µg/mL)

CCc1nc2cc(Cl)ccn2c1C(=O)NCc1ccc(Oc2ccc(F)cc2)cc1 [Compound 188, 7-Chloro-2-ethyl-N-(4-(4-fluorophenoxy)benzyl)imidazo[1,2-a]pyridine-3-carboxamide]
MIC [1, 3]: < 1 µM
MIC [2, 4]: < 1 µM

CCc1nc2cc(Cl)ccn2c1C(=O)NCc1ccc(-c2ccc(Cl)cc2C(F)(F)F)cc1 [Compound 130, 7-Chloro-N-((4′-chloro-2′-(trifluoromethyl)biphenyl-4-yl)methyl)-2-ethylimidazo[1,2-a]pyridine-3-carboxamide]
MIC [1, 3]: < 1 µM
MIC [2, 4]: 1 to 20 µM (≈ 0.492 to 9.85 µg/mL)

CCc1nc2cc(Cl)ccn2c1C(=O)NCc1ccn(-c2ccc(F)cc2)n1 [Compound 236, 7-Chloro-2-ethyl-N-((1-(4-fluorophenyl)-1H-pyrazol-3-yl)methyl)imidazo[1,2-a]pyridine-3-carboxamide]
MIC [1, 3]: > 20 µM
MIC [2, 4]: 1 to 20 µM (≈ 0.398 to 7.96 µg/mL)

Cc1ccn2c(C(=O)NCc3ccccc3)c(C)nc2c1 [Compound 31, N-Benzyl-2,7-dimethylimidazo[1,2-a]pyridine-3-carboxamide]
MIC [1, 3]: < 1 µM
MIC [2, 4]: 1 to 20 µM (≈ 0.279 to 5.59 µg/mL)

CCc1nc2ccc(Cl)cn2c1C(=O)NCc1ccc(N2CCC(Oc3ccc(Cl)cc3)CC2)cc1 [Compound 162, 6-Chloro-N-(4-(4-(4-chlorophenoxy)piperidin-1-yl)benzyl)-2-ethylimidazo[1,2-a]pyridine-3-carboxamide]
MIC [1, 3]: < 1 µM
MIC [2, 4]: < 1 µM

CCc1nc2ccc(Cl)cn2c1C(=O)NCc1ccc(-c2ccc(C#N)cc2C)cc1 [Compound 131, 6-Chloro-N-((4′-cyano-2′-methylbiphenyl-4-yl)methyl)-2-ethylimidazo[1,2-a]pyridine-3-carboxamide]
MIC [1, 3]: < 1 µM
MIC [2, 4]: < 1 µM

CCc1nc2cc(O)ccn2c1C(=O)NCc1ccc(OC(F)(F)F)cc1 [Compound 105, 2-Ethyl-7-hydroxy-N-(4-(trifluoromethoxy)benzyl)imidazo[1,2-a]pyridine-3-carboxamide]
MIC [1, 3]: > 20 µM
MIC [2, 4]: > 20 µM

CCc1nc2ccc(Cl)cn2c1CNc1ccc(OC(F)(F)F)cc1 [Compound 240, N-((6-Chloro-2-ethylimidazo[1,2-a]pyridin-3-yl)methyl)-4-(trifluoromethoxy)aniline]
MIC [1, 3]: > 20 µM
MIC [2, 4]: > 20 µM

Cc1nc2ccccn2c1C(=O)NCc1cccnc1 [Compound 13, 2-Methyl-N-(pyridin-3-ylmethyl)imidazo[1,2-a]pyridine-3-carboxamide]
MIC [1, 3]: > 20 µM
MIC [2, 4]: > 20 µM

CCc1nc2ccc(F)cn2c1C(=O)NCc1ccc(OCc2ccc(OC(F)(F)F)cc2)cc1 [Compound 258, 2-Ethyl-6-fluoro-N-(4-(4-(trifluoromethoxy)benzyloxy)benzyl)imidazo[1,2-a]pyridine-3-carboxamide]
MIC [1, 3]: < 1 µM
MIC [2, 4]: < 1 µM

Cc1nc2cccc(C)n2c1C(=O)NCc1ccccc1 [Compound 33, N-Benzyl-2,5-dimethylimidazo[1,2-a]pyridine-3-carboxamide]
MIC [1, 3]: > 20 µM
MIC [2, 4]: > 20 µM

Cc1nc2cc(Cl)ccn2c1C(=O)NCc1ccc(-c2ccccc2)cc1 [Compound 45]
MIC [1, 3]: < 1 µM
MIC [2, 4]: < 1 µM

Cc1nc2ccccn2c1C(=O)NCc1ccccc1 [Compound 8, N-Benzyl-2-methylimidazo[1,2-a]pyridine-3-carboxamide]
MIC ([1]; read-out: QIM (μM)): 1 to 20 µM (≈ 0.265 to 5.31 µg/mL)
MIC ([1]; dose response confirmation, 80% bacterial growth inhibition, read-out: minimum inhibitory concentration (MIC), QIM assay): 2.5 µM (≈ 0.663 µg/mL)
MIC ([2]; read-out: QUM (μM)): > 20 µM
MIC ([2]; dose response confirmation, 80% bacterial growth inhibition, read-out: minimum inhibitory concentration (MIC), QUM assay): 5 µM (≈ 1.33 µg/mL)

CCc1nc2cc([N+](=O)[O-])ccn2c1C(=O)NCc1ccc(N2CCC(Oc3ccc(OC(F)(F)F)cc3)CC2)cc1 [Compound 170, 2-Ethyl-7-nitro-N-(4-(4-(4-(trifluoromethoxy)phenoxy)piperidin-1-yl)benzyl) imidazo[1,2-a]pyridine-3-carboxamide]
MIC [1, 3]: 1 to 20 µM (≈ 0.584 to 11.7 µg/mL)
MIC [2, 4]: 1 to 20 µM (≈ 0.584 to 11.7 µg/mL)

CCc1nc2cc(Cl)ccn2c1C(=O)NCc1ccc(N2CCC(Oc3ccc(OC(F)(F)F)cc3)CC2)cc1 [Compound 140, 7-Chloro-2-ethyl-N-(4-(4-(4-(trifluoromethoxy)phenoxy)piperidin-1-yl)benzyl)imidazo-[1,2-a]pyridine-3-carboxamide]
MIC [1, 3]: < 1 µM
MIC [2, 4]: < 1 µM

CCc1nc2ccc(C(F)(F)F)cn2c1C(=O)NCc1ccc(OC(F)(F)F)cc1 [Compound 151, 2-Ethyl-N-(4-(trifluoromethoxy)benzyl)-6-(trifluoromethyl)imidazo[1,2-a]pyridine-3-carboxamide]
MIC [1, 3]: > 20 µM
MIC [2, 4]: 1 to 20 µM (≈ 0.431 to 8.63 µg/mL)

CCc1nc2ccc(Cl)cn2c1C(=O)N(C)Cc1ccc(Oc2ccc(F)cc2)cc1 [Compound 197, 6-Chloro-2-ethyl-N-(4-(4-fluorophenoxy)benzyl)-N-methylimidazo[1,2-a]pyridine-3-carboxamide]
MIC [1, 3]: 1 to 20 µM (≈ 0.438 to 8.76 µg/mL)
MIC [2, 4]: 1 to 20 µM (≈ 0.438 to 8.76 µg/mL)

Cc1nc2cc(C#N)ccn2c1C(=O)NCc1ccccc1 [Compound 35, N-Benzyl-7-cyano-2-methylimidazo[1,2-a]pyridine-3-carboxamide]
MIC [1, 3]: > 20 µM
MIC [2, 4]: > 20 µM

CCc1nc2ccc(Cl)cn2c1C(=O)NCc1ccn(-c2ccc(F)cc2)n1 [Compound 235, 6-Chloro-2-ethyl-N-((1-(4-fluorophenyl)-1H-pyrazol-3-yl)methyl)imidazo[1,2-a]pyridine-3-carboxamide]
MIC [1, 3]: 1 to 20 µM (≈ 0.398 to 7.96 µg/mL)
MIC [2, 4]: 1 to 20 µM (≈ 0.398 to 7.96 µg/mL)

CCc1nc2ccccn2c1C(=O)NCc1ccc2c(ccn2C)c1 [Compound 56, 2-Ethyl-N-((1-methyl-1H-indol-5-yl)methyl)imidazo[1,2-a]pyridine-3-carboxamide]
MIC [1, 3]: < 1 µM
MIC [2, 4]: < 1 µM

CCc1nc2cc(Cl)ccn2c1C(=O)NCc1ccc(-c2ccc(C)cc2)cc1 [Compound 98, 7-Chloro-2-ethyl-N-((4′-methylbiphenyl-4-yl)methyl)imidazo[1,2-a]pyridine-3-carboxamide]
MIC [1, 3]: < 1 µM
MIC [2, 4]: < 1 µM

CCc1nc2ccc(Cl)cn2c1C(=O)NCc1ccn(-c2ccc(OC(F)(F)F)cc2)n1 [Compound 231, 6-Chloro-2-ethyl-N-((1-(4-(trifluoromethoxy)phenyl)-1H-pyrazol-3-yl)methyl) imidazo[1,2-a]pyridine-3-carboxamide]
MIC [1, 3]: < 1 µM
MIC [2, 4]: < 1 µM

CCc1nc2cc(Cl)ccn2c1C(=O)NCc1ccc2[nH]c(-c3ccc(OC(F)(F)F)cc3)nc2c1 [Compound 205, 7-Chloro-2-ethyl-N-((2-(4-(trifluoromethoxy)phenyl)-1H-benzo[d]imidazol-5-yl)methyl) imidazo[1,2-a]pyridine-3-carboxamide]
MIC [1, 3]: > 20 µM
MIC [2, 4]: > 20 µM

CCc1nc2ccc(Cl)cn2c1C(=O)NCc1ccc(-c2ccccc2Cl)cc1 [Compound 82, 6-Chloro-N-((2′-chlorobiphenyl-4-yl)methyl)-2-ethylimidazo[1,2-a]pyridine-3-carboxamide]
MIC [1, 3]: < 1 µM
MIC [2, 4]: < 1 µM

CCc1nc2ccc(Cl)cn2c1C(=O)NCc1ccc(-c2cccc(C)c2)cc1 [Compound 85, 6-Chloro-2-ethyl-N-((3′-methylbiphenyl-4-yl)methyl)imidazo[1,2-a]pyridine-3-carboxamide]
MIC [1, 3]: < 1 µM
MIC [2, 4]: < 1 µM

CC(C)c1nc2ccccn2c1C(=O)NCc1ccc(-c2ccccc2)cc1 [Compound 52, N-(Biphenyl-4-ylmethyl)-2-isopropylimidazo[1,2-a]pyridine-3-carboxamide]
MIC [1, 3]: 1 to 20 µM (≈ 0.369 to 7.39 µg/mL)
MIC [2, 4]: 1 to 20 µM (≈ 0.369 to 7.39 µg/mL)

CCc1nc2ccc(Cl)cn2c1C(=O)NCc1ccc2ccccc2c1 [Compound 80, 6-Chloro-2-ethyl-N-(naphthalen-2-ylmethyl)imidazo[1,2-a]pyridine-3-carboxamide]
MIC [1, 3]: < 1 µM
MIC [2, 4]: < 1 µM

CCc1nc2ccc(Cl)cn2c1C(=O)NCc1ccc(-c2ccccc2C)cc1 [Compound 84, 6-Chloro-2-ethyl-N-((2′-methylbiphenyl-4-yl)methyl)imidazo[1,2-a]pyridine-3-carboxamide]
MIC [1, 3]: < 1 µM
MIC [2, 4]: < 1 µM
